{"source": "paper PMC10565663", "about": "“^177Lu-labeled PSMA targeting therapeutic with optimized linker for treatment of disseminated prostate cancer; evaluation of biodistribution and dosimetry” (Frontiers in Oncology, 2023)", "key": {"PC3-pip cells": {"system": "PC3-pip cells", "assay": "Cellular processing and internalization (acid wash method)", "type": "cell-based, human", "details": "2 nM, after 24 h of continuous incubation at 37°C", "experimental": "Internalization of radiolabeled PSMA binders was evaluated using an acid wash method ([21]). PC3-pip cells were incubated with 2 nM of [^177Lu]Lu-BQ7876 or [^177Lu]Lu-PSMA-617 in RPMI medium at 37°C (5% of CO2). At predetermined time points (1, 2, 6 and 24 h), cells were treated with 0.5 mL of 4 M urea solution in a 0.2 M glycine buffer, pH 2.5, for 5 minutes on ice. After that, the acidic supernatant was collected and this fraction was considered to be a membrane-bound activity. To lyse the cells, 0.5 mL of 1 M sodium hydroxide solution was added and incubated at 37°C for at least 20 min. Alkaline-containing solution was collected, and the basic fraction was considered to be an internalized activity. Samples were measured using gamma-counter."}, "[1]": {"target": "T1, PSMA-expressing PC3-pip cells (Homo sapiens, UniProt Q04609)", "T1 construct": "expressed in transfected cells; host or cells: PC3-pip (PSMA-transfected PC-3 human prostate cancer cells), provided by Prof; M. Pomper, Johns Hopkins University", "T1 sequence (Q04609 whole entry)": "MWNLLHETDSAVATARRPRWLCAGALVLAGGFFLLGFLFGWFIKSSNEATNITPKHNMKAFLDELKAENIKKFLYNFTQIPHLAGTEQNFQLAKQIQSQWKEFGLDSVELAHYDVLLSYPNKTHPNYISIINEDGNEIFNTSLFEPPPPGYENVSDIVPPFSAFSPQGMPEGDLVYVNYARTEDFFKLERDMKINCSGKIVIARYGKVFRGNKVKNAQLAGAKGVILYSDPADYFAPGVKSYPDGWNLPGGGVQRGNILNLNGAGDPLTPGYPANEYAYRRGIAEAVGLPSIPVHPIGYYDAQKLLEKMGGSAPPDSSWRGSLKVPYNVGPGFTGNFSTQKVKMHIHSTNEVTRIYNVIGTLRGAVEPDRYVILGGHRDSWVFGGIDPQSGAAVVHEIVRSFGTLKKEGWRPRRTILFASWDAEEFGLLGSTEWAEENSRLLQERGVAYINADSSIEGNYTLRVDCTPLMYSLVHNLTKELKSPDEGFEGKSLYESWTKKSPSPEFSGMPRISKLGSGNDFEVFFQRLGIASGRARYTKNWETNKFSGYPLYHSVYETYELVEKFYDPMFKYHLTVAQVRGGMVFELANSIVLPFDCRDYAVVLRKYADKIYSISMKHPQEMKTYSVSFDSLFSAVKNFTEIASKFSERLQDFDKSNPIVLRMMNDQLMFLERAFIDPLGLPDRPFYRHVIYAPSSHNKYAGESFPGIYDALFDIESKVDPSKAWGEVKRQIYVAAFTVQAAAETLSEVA", "assay": "In vitro binding specificity test (PSMA saturation with unlabeled compound)", "details": "1 nM radiolabeled compound, 100-fold molar excess unlabeled, 1 h 37°C", "experimental": "The human prostate cancer cell line PC-3 was purchased from the American Type Culture Collection (ATCC; LGC Promochem, Borås, Sweden). The cells were cultured in Roswell Park Memorial Institute (RPMI) 1640 medium supplemented with 10% fetal bovine serum (FBS), 2 mM L-glutamine, penicillin 100 IU/mL and 100 µg/mL streptomycin at 37°C and 5% CO2 atmosphere. The PSMA-transfected and overexpressing variant of PC3 cell line, PC3-pip, was provided by Prof. M. Pomper, Department of Radiology, the Johns Hopkins University, Baltimore, MD, US. PC3-pip cells were cultured in two types of RPMI media. The first one contained 20% fetal bovine serum, 1% of L-glutamine (5 mL) and 1% of PEST (penicillin and streptomycin 5 mL). The second one contained 20% fetal bovine serum, 1% of L-glutamine (5 mL) and 1% of PEST (penicillin and streptomycin 5 mL) and 10 μg/mL of pyramycin. The second media is used every second passage to maintain clone selection. All in vitro experiments were performed in triplicates. For a typical experiment, cells were seeded one day before the experiment in Petri dishes (35 mm) in the amount of 1×10^6 cell/dish.\n[…] specificity was tested using a saturation method. Before the experiment, cells were washed with PBS solution. […] Cell-associated activity was measured using gamma-counter and presented as the percentage of added activity."}, "[2]": {"design": "method as in Kuo et al. 2018", "details": "humans; extrapolated from mouse biodistribution; ref Kuo et al. 2018; cited from earlier work"}, "PC3-pip xenografts [3]": {"system": "PC3-pip xenografts", "assay": "Biodistribution in mice bearing PSMA-positive PC3-pip xenografts", "type": "in vivo, Balb/c nu/nu mice", "details": "3 h p.i.; PC3-pip xenograft mice; n=4", "experimental": "To prepare xenografts, PC3-pip and PC3 (PSMA-negative control) cells (10^7 cells in 100 μL of media) were subcutaneously injected in the hind legs of female Balb/c nu/nu mice. At the time of the experiment, the average mouse weight was 18 ± 2 g. The average tumor weight was 0.2 ± 0.1 g.\nBiodistribution of [^177Lu]Lu-BQ7876 was determined at 1, 3, 24, 48 and 130 hours p.i. Mice were injected with [^177Lu]Lu-BQ7876 (280 kBq/mouse). The amount of substance was adjusted to 80 pmol/mouse using unlabeled substance. A group of four animals per data point was used. The labeled peptide was injected into the tail vein. Mice were anaesthetized by a lethal intraperitoneal injection of ketamine and xylazine mixture solution (the dose of ketamine was 250 mg/kg and the dose of xylazine was 25 mg/kg) and sacrificed. Mice were exsanguinated by heart puncture using a heparinized syringe under anaesthesia. Organs and tissues were excised and weighed, and the activity of each organ was measured. The percentage of injected dose per gram of sample (%ID/g) was calculated. Activity in the rest of the gastrointestinal tract was measured to estimate hepatobiliary excretion. The rest of the body was also collected and its activity was measured. […]"}, "PC3-pip xenografts [4]": {"system": "PC3-pip xenografts", "assay": "microSPECT/CT imaging of mice bearing PC3-pip xenografts", "type": "in vivo, Balb/c nu/nu mice", "details": "3 h pi, 80 pmol/mouse", "experimental": "To confirm the biodistribution data, imaging of mice bearing PC3-pip xenografts was performed. The mice were injected with [^177Lu]Lu-BQ7876 (900 kBq/mouse, 80 pmol/mouse) or [^177Lu]Lu-PSMA-617 (1200 kBq/mouse, 80 pmol/mouse). Imaging was performed at 3 h pi using nanoScan SPECT/CT (Mediso Medical Imaging Systems, Hungary) according to the protocol describe earlier ([25])."}, "[5]": {"target": "T2, PSMA-expressing PC-3pip prostate cancer cells (Homo sapiens, UniProt Q04609)", "T2 construct": "expressed in transfected cells; host or cells: PC3-pip (PSMA-transfected PC-3 human prostate cancer cells), provided by Prof; M. Pomper, Johns Hopkins University", "T2 sequence (Q04609 whole entry)": "as above", "assay": "Half-maximal inhibitory concentration: inhibition of [^111In]In-PSMA-617 binding", "details": "vs [^111In]In-PSMA-617 (1 nM); PC3-pip cells; 4°C, 4 hours", "experimental": "For the determination of a half-maximal inhibitory concentration (IC50), PSMA-617 was labeled with indium-111. For this purpose, 2 nmol PSMA-617 were dissolved in 40 µL 0.2 M ammonium acetate, pH 5.5, and 12 µL (10 MBq) of [^111In]InCl3 solution in 0.01 M HCl was added. The mixture was vortexed and incubated at 85 °C for 30 min. The yield was determined using iTLC eluted with 0.2 M citric acid, pH 2.0. Since the radiochemical yield was over 98%, [^111In]In-PSMA-617 was used in further experiments without purification.\nFor determination of IC50, BQ7876 and PSMA-617 were loaded with non-radioactive Lu of natural isotopic composition (^natLu) by incubation with a three-fold molar excess of ^natLuCl3 at 85 °C for 30 min in 0.2 M ammonium acetate, pH 5.5. Cells were washed with a PBS solution and incubated at 4°C for 4 hours with [^111In]In-PSMA-617 (1 nM) in the presence of increasing concentrations (range 0 to 2 μM) of competitors, ^natLu-BQ7876 or ^natLu-PSMA-617. Thereafter, cells were detached, collected, and cell-associated activity was measured using gamma-counter. The half-maximal inhibitory concentration was calculated using GraphPad software (version 9.3.1 for Windows, GraphPad Software, LLC. CA, USA)."}}, "note": "pIC50: −log10 of the molar value. Several values for one entry are separate records, joined by “and”; a condition that tells them apart may be missing. Equal entries are not always repeated."}
{"smiles": "O=C(O)CC[C@H](NC(=O)N[C@@H](CCCCNC(=O)[C@H](Cc1ccc2ccccc2c1)NC(=O)[C@H]1CC[C@H](CNC(=O)CN2CCN(CC(=O)O)CCN(CC(=O)O)CCN(CC(=O)O)CC2)CC1)C(=O)O)C(=O)O", "note": "[PSMA-617]", "values": [{"measurement": "internalized fraction of the total cell-associated activity", "setting": "PC3-pip cells", "value": "10.0 ± 2.9", "unit": "%"}]}
{"smiles": "O=C([O-])CN1CCN(CC(=O)[O-])CCN(CC(=O)NC[C@H]2CC[C@H](C(=O)N[C@@H](Cc3ccc4ccccc4c3)C(=O)NCCCC[C@H](NC(=O)N[C@@H](CCC(=O)O)C(=O)O)C(=O)O)CC2)CCN(CC(=O)[O-])CC1.[111In+3]", "note": "[[^111In]In-PSMA-617]", "values": [{"measurement": "Binding of labeled compound to cells after saturation of PSMA with large excess of unlabeled compound", "setting": "[1]", "value": "highly significant (p< 5 x 10^-6) reduction of binding"}]}
{"smiles": "O=C([O-])CN1CCN(CC(=O)[O-])CCN(CC(=O)NC[C@H]2CC[C@H](C(=O)N[C@@H](Cc3ccc4ccccc4c3)C(=O)NCCCC[C@H](NC(=O)N[C@@H](CCC(=O)O)C(=O)O)C(=O)O)CC2)CCN(CC(=O)[O-])CC1.[177Lu+3]", "note": "[[^177Lu]Lu-PSMA-617]", "values": [{"measurement": "Absorbed dose, adrenals", "setting": "[2]", "value": "7.64E-03", "unit": "mGy/MBq"}, {"measurement": "Absorbed dose, brain", "setting": "[2]", "value": "4.32E-04", "unit": "mGy/MBq"}, {"measurement": "Absorbed dose, gallbladder wall", "setting": "[2]", "value": "8.76E-04", "unit": "mGy/MBq"}, {"measurement": "Absorbed dose, heart wall", "setting": "[2]", "value": "1.00E-03", "unit": "mGy/MBq"}, {"measurement": "Absorbed dose, kidneys", "setting": "[2]", "value": "1.11E-01", "unit": "mGy/MBq"}, {"measurement": "Absorbed dose, liver", "setting": "[2]", "value": "1.37E-03", "unit": "mGy/MBq"}, {"measurement": "Absorbed dose, lungs", "setting": "[2]", "value": "1.81E-03", "unit": "mGy/MBq"}, {"measurement": "Absorbed dose, osteogenic cells", "setting": "[2]", "value": "8.30E-04", "unit": "mGy/MBq"}, {"measurement": "Absorbed dose, pancreas", "setting": "[2]", "value": "7.60E-04", "unit": "mGy/MBq"}, {"measurement": "Absorbed dose, prostate", "setting": "[2]", "value": "1.17E-03", "unit": "mGy/MBq"}, {"measurement": "Absorbed dose, red marrow", "setting": "[2]", "value": "7.59E-04", "unit": "mGy/MBq"}, {"measurement": "Absorbed dose, small intestine", "setting": "[2]", "value": "1.72E-03", "unit": "mGy/MBq"}, {"measurement": "Absorbed dose, spleen", "setting": "[2]", "value": "4.42E-03", "unit": "mGy/MBq"}, {"measurement": "Absorbed dose, stomach wall", "setting": "[2]", "value": "1.69E-03", "unit": "mGy/MBq"}, {"measurement": "Absorbed dose, testes", "setting": "[2]", "value": "1.05E-03", "unit": "mGy/MBq"}, {"measurement": "Absorbed dose, thymus", "setting": "[2]", "value": "7.19E-04", "unit": "mGy/MBq"}, {"measurement": "Absorbed dose, thyroid", "setting": "[2]", "value": "7.11E-04", "unit": "mGy/MBq"}, {"measurement": "Absorbed dose, total body", "setting": "[2]", "value": "1.70E-03", "unit": "mGy/MBq"}, {"measurement": "Uptake in blood", "setting": "PC3-pip xenografts [3]", "value": "0.06±0.02", "unit": "%IA/g"}, {"measurement": "Uptake in bone", "setting": "PC3-pip xenografts [3]", "value": "0.11±0.02", "unit": "%IA/g"}, {"measurement": "Uptake in heart", "setting": "PC3-pip xenografts [3]", "value": "0.08±0.07", "unit": "%IA/g"}, {"measurement": "Uptake in kidney", "setting": "PC3-pip xenografts [3]", "value": "9±3", "unit": "%IA/g"}, {"measurement": "Uptake in liver", "setting": "PC3-pip xenografts [3]", "value": "0.24±0.02", "unit": "%IA/g"}, {"measurement": "Uptake in lung", "setting": "PC3-pip xenografts [3]", "value": "0.21±0.07", "unit": "%IA/g"}, {"measurement": "Uptake in muscle", "setting": "PC3-pip xenografts [3]", "value": "0.07±0.02", "unit": "%IA/g"}, {"measurement": "Uptake in pancreas", "setting": "PC3-pip xenografts [3]", "value": "0.09±0.04", "unit": "%IA/g"}, {"measurement": "Uptake in salivary gland", "setting": "PC3-pip xenografts [3]", "value": "0.12±0.04", "unit": "%IA/g"}, {"measurement": "Uptake in spleen", "setting": "PC3-pip xenografts [3]", "value": "0.5±0.3", "unit": "%IA/g"}, {"measurement": "Uptake in tumor", "setting": "PC3-pip xenografts [3]", "value": "12±3", "unit": "%IA/g"}, {"measurement": "Activity accumulation in microSPECT/CT imaging", "setting": "PC3-pip xenografts [4]", "value": "accumulated avidly in tumors"}, {"measurement": "Binding of labeled compound to cells after saturation of PSMA with large excess of unlabeled compound", "setting": "[1]", "value": "highly significant (p< 5 x 10^-6) reduction of binding"}]}
{"smiles": "O=C([O-])CN1CCN(CC(=O)[O-])CCN(CC(=O)NC[C@H]2CC[C@H](C(=O)N[C@@H](Cc3ccc4ccccc4c3)C(=O)NCCCC[C@H](NC(=O)N[C@@H](CCC(=O)O)C(=O)O)C(=O)O)CC2)CCN(CC(=O)[O-])CC1.[Lu+3]", "note": "[^natLu-PSMA-617]", "values": [{"measurement": "pIC50", "setting": "[5]", "value": "7.21 and 7.22"}]}
